In brackets after ≈: the same amount, converted by molar mass.
What was measured:
[1] = test system: Candida glabrata ATCC 2001 (strain H); experiment: Antifungal MIC determination (CLSI M27-A3, 96-well); format: cell-based; conditions: strain H; for MIC-0: compounds 1-4n and AmB, 48 h, RPMI 1640
Procedure: (§1) Fungal MIC determination experiments were performed using untreated 96-well plates (Corning). Cells were counted either by using a hemocytometer (Hausser Scientific, Horsham, Pa., USA) or by measuring optical density at attenuance of 600 nm (OD600) by using a Genesys 20 spectrophotometer (Thermo Scientific, Waltham, Mass., USA). Spectrophotometric and colorimetric measurements in 96-well plates were performed using a SpectraMax M5 spectrometer (Molecular Devices, Sunnyvale, Calif., USA).
(§2) Yeast strains Candida albicans ATCC 10231 (strain A), C. albicans ATCC 64124 (strain B), and C. albicans ATCC MYA-2876(S) (strain C) were kindly provided by Dr. Jon Y. Takemoto (Utah State University, Logan, UT, USA). C. albicans ATCC MYA-90819(R) (strain D), C. albicans ATCC MYA-2310(S) (strain E), C. albicans ATCC 1237(R) (strain F), C. albicans ATCC MYA-1003(R) (strain G), Candida glabrata ATCC 2001 (strain H), Candida krusei ATCC 6258 (strain I), and Candida parapsilosis ATCC 22019 (strain J) were obtained from the American Type Culture Collection (ATCC, Manassas, Va., USA). The (S) and (R) indicate that ATCC reports these strains to be susceptible (S) and resistant (R) to ITC and FLC. The filamentous fungal strains Aspergillus flavus ATCC MYA-3631 (strain K), and Aspergillus terreus ATCC MYA-3633 (strain M) were also obtained from the American Type Culture Collection (ATCC, Manassas, Va., USA). Aspergillus nidulans ATCC 38163 (strain L) was kindly provided by Dr. Jon S. Thorson (University of Kentucky, Lexington, Ky., USA), respectively. Yeast strains were cultured at 35° C. Filamentous fungal strains were cultured at 25° C. and the spores were harvested. All fungal strains were cultured in RPMI 1640 medium (catalog # R6504, Sigma-Aldrich Chemical Co., St. Louis, Mo.) buffered to pH 7.0 with 0.165 M morpholinepropanesulfonic acid (MOPS) buffer (Sigma-Aldrich Chemical Co.).
(§3) The MIC values against fungal strains were determined based on a previously published protocol. MIC values for ebsulfur (2a) analogues against fungal cells were evaluated in 96-well plates as described in the CLSI document M27-A3 with minor modifications. […] Therefore, potato dextrose broth (PDB) was used to grow the yeast inocula of all strains tested, which were later diluted in RPMI 1640 medium to perform determination of MIC values. […] The tested compounds (10 mg/mL) were diluted to the working stocks (500 μg/mL) by addition of DMSO. Two-fold serial dilution of the working stocks was prepared by addition of RPMI 1640 medium (100 μL) and cell suspension (100 μL) to 96-well microtiter plate to achieve final drug and inoculum concentrations ranging from 12.5-0.02 μg/mL and 5×10^3 CFU/mL, respectively. Plates were incubated for 48 h at 35° C. […]

[2] = test system: Candida albicans ATCC 10231 (strain A); experiment: as above; format: cell-based; conditions: strain A; compounds 1-4n and AmB; 48 h, RPMI 1640
Procedure: as §1, §2, §3

[3] = test system: Candida parapsilosis ATCC 22019 (strain J); experiment: as above; format: cell-based; conditions: strain J; for MIC-0: compounds 1-4n and AmB, 48 h, RPMI 1640
Procedure: as §1, §2, §3

[4] = test system: Candida krusei ATCC 6258 (strain I); experiment: as above; format: cell-based; conditions: strain I; for MIC-0: compounds 1-4n and AmB, 48 h, RPMI 1640
Procedure: as §1, §2, §3

[5] = test system: C. albicans ATCC 64124 (strain B); experiment: microbe, parasite or virus in culture; format: cell-based, Candida albicans; conditions: strain B; compounds 1-4n and AmB; 48 h, RPMI 1640
Procedure: as §1, §2, §3

[6] = test system: C. albicans ATCC MYA-1237(R) (strain F); experiment: microbe, parasite or virus in culture; format: cell-based, Candida albicans; conditions: strain F; compounds 1-4n and AmB; 48 h, RPMI 1640
Procedure: as §1, §2, §3

[7] = test system: C. albicans ATCC MYA-1003(R) (strain G); experiment: microbe, parasite or virus in culture; format: cell-based, Candida albicans; conditions: strain G; compounds 1-4n and AmB; 48 h, RPMI 1640
Procedure: as §1, §2, §3

[8] = test system: C. albicans ATCC 90819(R) (strain D); experiment: microbe, parasite or virus in culture; format: cell-based, Candida albicans; conditions: strain D; compounds 1-4n and AmB; 48 h, RPMI 1640
Procedure: as §1, §2, §3

[9] = test system: C. albicans ATCC MYA-2310(S) (strain E); experiment: Antifungal MIC determination (CLSI M27-A3, 96-well); format: cell-based, Candida albicans; conditions: strain E; compounds 1-4n and AmB; 48 h, RPMI 1640
Procedure: as §1, §2, §3

[10] = test system: C. albicans ATCC MYA-2876(S) (strain C); experiment: as above; format: cell-based, Candida albicans; conditions: strain C; compounds 1-4n and AmB; 48 h, RPMI 1640
Procedure: as §1, §2, §3

[11] = test system: Aspergillus flavus ATCC MYA-3631 (strain K); experiment: Antifungal MIC determination, filamentous fungi spores; format: cell-based; conditions: all compounds
Procedure: as §1, §2
(§4) The MIC values against fungal strains were determined based on a previously published protocol. MIC values for ebsulfur (2a) analogues against fungal cells were evaluated in 96-well plates as described in the CLSI document M27-A3 with minor modifications. […] Therefore, potato dextrose broth (PDB) was used to grow the yeast inocula of all strains tested, which were later diluted in RPMI 1640 medium to perform determination of MIC values. […] The tested compounds (10 mg/mL) were diluted to the working stocks (500 μg/mL) by addition of DMSO. Two-fold serial dilution of the working stocks was prepared by addition of RPMI 1640 medium (100 μL) and cell suspension (100 μL) to 96-well microtiter plate to achieve final drug and inoculum concentrations ranging from 12.5-0.02 μg/mL and 5×10^3 CFU/mL, respectively. Plates were incubated for 48 h at 35° C.
(§5) MIC assays for the spore-forming filamentous fungi, such as strain A. flavus ATCC MYA-3631 (strain K), were performed in a similar fashion. The filamentous fungal strains were first cultured at 25° C. on potato dextrose agar (PDA) plates for 3-5 days or until confluent. Spores were collected by washing the surface of the agar plates with dd H2O (5 mL) and then isolated the spores by gravity filtration (the spores are H2O soluble). […] Researchers working with spores should wear a facemask to prevent spore inhalation.

[12] = test system: Aspergillus nidulans ATCC 38163 (strain L); experiment: as above; format: cell-based; conditions: strain L; spores
Procedure: as §1, §2, §4, §5

[13] = test system: Aspergillus terreus ATCC MYA-3633 (strain M); experiment: as above; format: cell-based; conditions: strain M, all compounds, spores
Procedure: as §1, §2, §4, §5

Row | Compound | MIC-0 [1] | MIC-0 [2] | MIC-0 [3] | MIC-0 [4] | MIC-0 [5] | MIC-0 [6] | MIC-0 [7] | MIC-0 [8] | MIC-0 [9] | MIC-0 [10] | MIC-0 [11] | MIC-0 [12] | MIC-0 [13] | MIC ([1]; Nakaseomyces glabratus, ATCC2001, azoles, read-out: MIC-2) | MIC ([3]; Lodderomyces parapsilosis, ATCC22019, azoles, read-out: MIC-2) | MIC ([4]; Pichia kudriavzevii, ATCC6258, azoles, read-out: MIC-2) | MIC ([11]; Aspergillus flavus, read-out: MIC-0) | MIC ([13]; Aspergillus terreus, read-out: MIC-0)
1 | COc1cc(OC)cc(-n2sc3ccccc3c2=O)c1 [Compound 2k] | 6.25 µg/mL (≈ 21.8 µM) | 12.5 µg/mL (≈ 43.5 µM) | 6.25 µg/mL (≈ 21.8 µM) | 6.25 µg/mL (≈ 21.8 µM) | 12.5 µg/mL (≈ 43.5 µM) | 12.5 µg/mL (≈ 43.5 µM) | 12.5 µg/mL (≈ 43.5 µM) | 3.13 µg/mL (≈ 10.9 µM) | 1.56 µg/mL (≈ 5.43 µM) | 3.13 µg/mL (≈ 10.9 µM) | 6.25 µg/mL (≈ 21.8 µM) | 6.25 µg/mL (≈ 21.8 µM) | 6.25 µg/mL (≈ 21.8 µM) | – | – | – | – | –
2 | O=c1c2ccccc2sn1-c1ccccn1 [Compound 2m] | 12.5 µg/mL (≈ 54.8 µM) | 6.25 µg/mL (≈ 27.4 µM) | 12.5 µg/mL (≈ 54.8 µM) | 6.25 µg/mL (≈ 27.4 µM) | 6.25 µg/mL (≈ 27.4 µM) | 6.25 µg/mL (≈ 27.4 µM) | 6.25 µg/mL (≈ 27.4 µM) | 6.25 µg/mL (≈ 27.4 µM) | 6.25 µg/mL (≈ 27.4 µM) | 12.5 µg/mL (≈ 54.8 µM) | 12.5 µg/mL (≈ 54.8 µM) | 12.5 µg/mL (≈ 54.8 µM) | 12.5 µg/mL (≈ 54.8 µM) | – | – | – | – | –
3 | Cc1cc(C)cc(-n2sc3ccccc3c2=O)c1 [Compound 2j] | 12.5 µg/mL (≈ 49 µM) | 3.13 µg/mL (≈ 12.3 µM) | 12.5 µg/mL (≈ 49 µM) | 12.5 µg/mL (≈ 49 µM) | 6.25 µg/mL (≈ 24.5 µM) | 3.13 µg/mL (≈ 12.3 µM) | 3.13 µg/mL (≈ 12.3 µM) | 12.5 µg/mL (≈ 49 µM) | 0.78 µg/mL (≈ 3.05 µM) | 1.56 µg/mL (≈ 6.11 µM) | 12.5 µg/mL (≈ 49 µM) | 12.5 µg/mL (≈ 49 µM) | 12.5 µg/mL (≈ 49 µM) | – | – | – | – | –
4 | O=c1c2ccccc2sn1-c1ccc(Cl)cc1 [Compound 2c] | 6.25 µg/mL (≈ 23.9 µM) | 3.13 µg/mL (≈ 12 µM) | 12.5 µg/mL (≈ 47.8 µM) | 3.13 µg/mL (≈ 12 µM) | >12.5 µg/mL | 6.25 µg/mL (≈ 23.9 µM) | 12.5 µg/mL (≈ 47.8 µM) | 6.25 µg/mL (≈ 23.9 µM) | 6.25 µg/mL (≈ 23.9 µM) | 12.5 µg/mL (≈ 47.8 µM) | 6.25 µg/mL (≈ 23.9 µM) | 6.25 µg/mL (≈ 23.9 µM) | 6.25 µg/mL (≈ 23.9 µM) | – | – | – | – | –
5 | O=c1c2ccccc2sn1-c1ccc(F)cc1 [Compound 2b] | 6.25 µg/mL (≈ 25.5 µM) | 3.13 µg/mL (≈ 12.8 µM) | 12.5 µg/mL (≈ 51 µM) | 3.13 µg/mL (≈ 12.8 µM) | 6.25 µg/mL (≈ 25.5 µM) | 6.25 µg/mL (≈ 25.5 µM) | 1.56 µg/mL (≈ 6.36 µM) | 3.13 µg/mL (≈ 12.8 µM) | 3.13 µg/mL (≈ 12.8 µM) | 3.13 µg/mL (≈ 12.8 µM) | 6.25 µg/mL (≈ 25.5 µM) | 12.5 µg/mL (≈ 51 µM) | 12.5 µg/mL (≈ 51 µM) | – | – | – | – | –
6 | CC(C)CCn1sc2ccccc2c1=O [Compound 3f] | 1.56 µg/mL (≈ 7.05 µM) | 1.56 µg/mL (≈ 7.05 µM) | 1.56 µg/mL (≈ 7.05 µM) | 0.39 µg/mL (≈ 1.76 µM) | 0.78 µg/mL (≈ 3.52 µM) | 0.78 µg/mL (≈ 3.52 µM) | 1.56 µg/mL (≈ 7.05 µM) | 0.78 µg/mL (≈ 3.52 µM) | 0.78 µg/mL (≈ 3.52 µM) | 1.56 µg/mL (≈ 7.05 µM) | 0.20 µg/mL (≈ 0.904 µM) | 0.02 µg/mL (≈ 0.0904 µM) | 0.10 µg/mL (≈ 0.452 µM) | – | – | – | – | –
7 | O=c1c2ccccc2sn1CCc1ccccc1 [Compound 3i] | 1.56 µg/mL (≈ 6.11 µM) | 1.56 µg/mL (≈ 6.11 µM) | 1.56 µg/mL (≈ 6.11 µM) | 1.56 µg/mL (≈ 6.11 µM) | 1.56 µg/mL (≈ 6.11 µM) | 1.56 µg/mL (≈ 6.11 µM) | 1.56 µg/mL (≈ 6.11 µM) | 1.56 µg/mL (≈ 6.11 µM) | 1.56 µg/mL (≈ 6.11 µM) | 1.56 µg/mL (≈ 6.11 µM) | 0.78 µg/mL (≈ 3.05 µM) | 0.20 µg/mL (≈ 0.783 µM) | 0.20 µg/mL (≈ 0.783 µM) | – | – | – | – | –
8 | CCC(C)n1ncn(-c2ccc(N3CCN(c4ccc(OCC5COC(Cn6cncn6)(c6ccc(Cl)cc6Cl)O5)cc4)CC3)cc2)c1=O (stereo not drawn) [ITC, itraconazole, reference compound] | – | – | – | – | – | – | – | – | – | – | – | – | – | 7.8 µg/mL (≈ 11.1 µM) | 0.12 µg/mL (≈ 0.17 µM) | 0.48 µg/mL (≈ 0.68 µM) | 0.48 µg/mL (≈ 0.68 µM) | 0.975 µg/mL (≈ 1.38 µM)
